Literature values as cited in article PMC6262012, “IMB-T130 targets 3-dehydroquinate synthase and inhibits Mycobacterium tuberculosis” (Scientific Reports, 2018).

Tested on: M. tuberculosis
Conditions: drug-resistant strains, compared with RFP and INH; cited from earlier work

For `O=C(Nc1nc(-c2ccccn2)cs1)c1ccc(Cl)s1` [IMB-T130, 5-chloro-N-[4-(pyridin-2-yl)-1,3-thiazol-2-yl] thiophene-2-carboxamide], the “MIC against drug-resistant strains” value is given as “substantially lower MIC”.
